Measured values: ChEMBL document CHEMBL1201862, “PubChem BioAssay data set” (2004)
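Briefly, cells in 96-well plates were exposed to five compound concentrations for 48 h, and endpoints were estimated by linear interpolation. GI50: concentration for 50% inhibition of growth.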 Active and inactive are the calls of the source. Cut-off read from the data, not from the text of the source: active = GI50 up to about 1.1 µM and inactive = higher.

Experiments:
Test in all cases: NCI anticancer screen, dose series, 48 h
HT-29 = test system: HT-29
HCC 2998 = test system: HCC 2998
HCT-116 = test system: HCT-116
PC-3 = test system: PC-3
T47D = test system: T47D
NCI-H23 = test system: NCI-H23
OVCAR-5 = test system: OVCAR-5
IGROV-1 = test system: IGROV-1
EKVX = test system: EKVX
A498 = test system: A498
MCF7 = test system: MCF7
OVCAR-3 = test system: OVCAR-3
Hs-578T = test system: Hs-578T
MDA-MB-231 = test system: MDA-MB-231
OVCAR-4 = test system: OVCAR-4
MOLT-4 = test system: MOLT-4
NCI-H460 = test system: NCI-H460
UACC-257 = test system: UACC-257
SK-MEL-5 = test system: SK-MEL-5
SK-MEL-28 = test system: SK-MEL-28
LOX IMVI = test system: LOX IMVI
SNB-75 = test system: SNB-75
SW-620 = test system: SW-620
M14 = test system: M14
UO-31 = test system: UO-31
DU-145 = test system: DU-145
HOP-92 = test system: HOP-92
SF-539 = test system: SF-539
NCI-H522 = test system: NCI-H522
SK-OV-3 = test system: SK-OV-3
K562 = test system: K562
SF-268 = test system: SF-268
COLO 205 = test system: COLO 205
TK-10 = test system: TK-10
MDA-N = test system: MDA-N
MDA-MB-435 = test system: MDA-MB-435
A549 = test system: A549
HCT-15 = test system: HCT-15
OVCAR-8 = test system: OVCAR-8
RPMI-8226 = test system: RPMI-8226
CCRF-CEM = test system: CCRF-CEM
NCI-H226 = test system: NCI-H226
SF-295 = test system: SF-295
KM12 = test system: KM12
ACHN = test system: ACHN
NCI/ADR-RES = test system: NCI/ADR-RES
HOP-62 = test system: HOP-62
SR = test system: SR
U-251 = test system: U-251
786-0 = test system: 786-0
SNB-19 = test system: SNB-19
SN12C = test system: SN12C
HL-60 = test system: HL-60
RXF 393 = test system: RXF 393
CAKI-1 = test system: CAKI-1
Malme-3M = test system: Malme-3M
UACC-62 = test system: UACC-62

## CC(C)[C@@H]1CC[C@@H](C)C[C@H]1OC(=O)/C=C1\C(C(=O)O[C@@H]2C[C@H](C)CC[C@H]2C(C)C)[C@H]2C=C[C@@H]1O2 (some centres not stated)
HT-29
  GI50: 33.4 µM (inactive)
HCC 2998
  GI50: 29.1 µM (inactive)
HCT-116
  GI50: 49.9 µM (inactive)
PC-3
  GI50: 37.3 µM (inactive)
T47D
  GI50: 75.2 µM (inactive)
NCI-H23
  GI50: 36.7 µM (inactive)
OVCAR-5
  GI50: > 100 µM (inactive)
IGROV-1
  GI50: > 100 µM (inactive)
EKVX
  GI50: 63.4 µM (inactive)
A498
  GI50: > 100 µM (inactive)
MCF7
  GI50: 25.1 µM (inactive)
OVCAR-3
  GI50: 38.3 µM (inactive)
Hs-578T
  GI50: 72.3 µM (inactive)
MDA-MB-231
  GI50: 87.5 µM (inactive)
OVCAR-4
  GI50: > 100 µM (inactive)
MOLT-4
  GI50: 35.8 µM (inactive)
NCI-H460
  GI50: 37.9 µM (inactive)
UACC-257
  GI50: 35 µM (inactive)
SK-MEL-5
  GI50: 40.4 µM (inactive)
SK-MEL-28
  GI50: > 100 µM (inactive)
LOX IMVI
  GI50: 34.1 µM (inactive)
SNB-75
  GI50: > 100 µM (inactive)
SW-620
  GI50: 29.9 µM (inactive)
M14
  GI50: 89.5 µM (inactive)
UO-31
  GI50: > 100 µM (inactive)
DU-145
  GI50: 57.9 µM (inactive)
HOP-92
  GI50: 63 µM (inactive)
SF-539
  GI50: > 100 µM (inactive)
NCI-H522
  GI50: 22.5 µM (inactive)
SK-OV-3
  GI50: > 100 µM (inactive)
K562
  GI50: 33.4 µM (inactive)
SF-268
  GI50: 76.4 µM (inactive)
COLO 205
  GI50: 64.3 µM (inactive)
TK-10
  GI50: > 100 µM (inactive)
MDA-N
  GI50: 83.6 µM (inactive)
MDA-MB-435
  GI50: 59 µM (inactive)
A549
  GI50: 80.2 µM (inactive)
HCT-15
  GI50: 92.3 µM
OVCAR-8
  GI50: 57.7 µM (inactive)
RPMI-8226
  GI50: 56.1 µM (inactive)
CCRF-CEM
  GI50: 23.4 µM (inactive)
NCI-H226
  GI50: 38.3 µM (inactive)
SF-295
  GI50: 25.2 µM (inactive)
KM12
  GI50: 87.7 µM (inactive)
ACHN
  GI50: 27.1 µM (inactive)
NCI/ADR-RES
  GI50: > 100 µM (inactive)
HOP-62
  GI50: > 100 µM (inactive)
SR
  GI50: 43 µM (inactive)
U-251
  GI50: 51.4 µM (inactive)
786-0
  GI50: 66.5 µM (inactive)
SNB-19
  GI50: > 100 µM (inactive)
SN12C
  GI50: 57.8 µM (inactive)
HL-60
  GI50: 22.9 µM (inactive)
RXF 393
  GI50: > 100 µM (inactive)
CAKI-1
  GI50: > 100 µM (inactive)
Malme-3M
  GI50: > 100 µM (inactive)
UACC-62
  GI50: 92.5 µM (inactive)
